These results are taken from patent publication US6767738B1, “Method of isolating adult mammalian CNS-derived progenitor stem cells using density gradient centrifugation” (The Salk Institute for Biological Studies, priority 1999, dated 2004).

One assay has as its system PERCOLL isolated cells. The assay can be described thus: Proliferation of PERCOLL isolated whole brain cells. It counts as cell-based, rat. To be noted: 20 ng/ml bFGF in vitro. The protocol: Dissection. Adult female Fischer 344 rats (4-6 months of age) were anesthetized with a mixture of ketamine (44 mg/kg), acepromazine (0.75 mg/kg), and xylazine (4 mg/kg) in 0.9% NaCl and decapitated. The brains were removed and placed into cold phosphate-buffered saline (PBS).
Tissue Preparation. A cell suspension was obtained by pooling the brains from 6 animals from which the cerebella had been trimmed away. The remaining brain tissue was then weighed. The brains were diced into small fragments, and then digested for 40-50 min at 37° C. in Hanks' balanced salt solution containing 0.1% grade II neutral protease (Boehringer Mannheim), 0.01% papain (Worthington), and 0.01% Dnase I (Worthington). The mixture was shaken every five minutes. Every fifteen minutes during the digestion, the tissues were gently disrupted by pipetting the digestion reaction mixture through a 5-ml pipette. The tissue was then rinsed two times with DMEM/F12 containing 10% […] bovine serum, to inactivate digestive enzymes, and filtered through nylon mesh (Nitex, 100 μm pore size), to remove undissociated tissue. The filtered cells were resuspended to a final volume of 10 ml in DMEM/F12/10% FBS.
PERCOLL™ (polyvinylpyrrolidone-coated silica colloids) density gradient preparation and centrifugation. […]

The subject of assay [1] is low buoyancy fraction cells from hippocampus or cortex. The assay can be described thus: Proliferation of low buoyancy hippocampus or cortex cells in growth medium. It counts as cell-based, rat. To be noted: 20 ng/ml FGF-2, after 10 days. The source says:
Tissue dissociation and fractionation: Tissues were finely minced and digested in a solution of papain (2.5 U/ml, Worthington), DNAse (250 U/ml, Worthington), and neutral protease (1 U/ml Dispase, Boehringer) dissolved in Hanks balanced salt solution, as described in Palmer T D, Ray J, Gage F H (1995), FGF-2-Responsive Neuronal Progenitors Reside in Proliferative and Quiescent Regions of the Adult Rodent Brain. Mol Cell Neurosci 6:474-486; and Gage F H, Coates P W, Palmer T D, Kuhn H G, Fisher L J, Suhonen J O, Peterson D A, Suhr S T, Ray J (1995), Survival and differentiation of adult neuronal progenitor cells transplanted to the adult brain. Proc Natl Acad Sci USA 92:11879-11883. Cells and tissue fragments were washed 3 times with Dulbecco's Modified Eagles Medium (DMEM) containing 10% […] bovine serum (defined FBS, Hyclone). Whole digested tissue was then suspended in DMEM 10% FBS, filtered through a sterile 107 μm nylon mesh and thoroughly mixed with an equal volume of PERCOLL™ (polyvinylpyrrolidone-coated silica colloids) solution. […]
Although BrdU-labeled cells fractionated to the low buoyancy population, most of the isolated cells were unlabeled, consistent with the isolation of immature, yet relatively quiescent precursors. […] Cell division was monitored by counting cells and by treating replicate cultures with BrdU at different times post plating. […]

With “FGF-2: basic fibroblast growth factor, human recombinant, prepared in E. coli”, the proliferation response entry with PERCOLL isolated cells is “inducible to proliferate”. Besides, in assay [1], the “cells dividing in a given 24-hour period” value is reported as “roughly 85%” and the “cells labeled following a 48 hour exposure to BrdU” value is listed as above 99%.
